Consider 20 compounds from US12630534B2 (TAKEDA PHARMACEUTICAL COMPANY LIMITED, priority 2020, dated 2026).

In the experiment the target is T1, human GPR139 (Homo sapiens, UniProt Q6DWJ6).
T1 construct: expressed in transfected cells; host or cells: CHO-TREx (Life Technologies) cells, expression induced with doxycycline
T1 sequence (Q6DWJ6 1-353): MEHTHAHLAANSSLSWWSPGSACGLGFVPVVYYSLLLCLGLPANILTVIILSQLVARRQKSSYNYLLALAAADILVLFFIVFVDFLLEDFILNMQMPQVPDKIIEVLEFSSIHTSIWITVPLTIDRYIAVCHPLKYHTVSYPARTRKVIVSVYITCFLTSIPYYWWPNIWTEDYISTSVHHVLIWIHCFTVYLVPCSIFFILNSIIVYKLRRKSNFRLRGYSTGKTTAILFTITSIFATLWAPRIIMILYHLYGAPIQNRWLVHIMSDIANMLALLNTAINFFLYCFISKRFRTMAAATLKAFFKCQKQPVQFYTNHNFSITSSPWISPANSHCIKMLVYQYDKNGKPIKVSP
The experiment can be described thus: Inhibition rate of the amount of IP1 in GPR139-expressed CHO cells (inverse agonist assay, Test Example 2). It counts as cell-based. To be noted: CHO, relative value, inhibition rate of Example Compound 2 in Test Example 1 defined as 100%. The method, boiled down: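 IP1 accumulation read by IP-One HTRF after 40 min compound exposure at 37° C in stimulation buffer, 2000 cells/well, GPR139 expression induced the day before with doxycycline. Results given as relative inhibition rate, normalised to a reference compound set at […].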

Turning to `CCn1cc(Cn2ccn(-c3cc(-c4ccc(F)cc4)cc(C4CC4(F)F)c3F)c2=O)cn1` (centres unmarked) [Example 131], the inhibition at 30 µM was 96%.
As to `CCn1cc(Cn2c(C)cn(-c3nc(N4CCOC(C)(C)C4)cc(C(F)(F)F)c3C)c2=O)cn1` [Example 120, 1-[6-(2,2-dimethylmorpholin-4-yl)-3-methyl-4-(trifluoromethyl)pyridin-2-yl]-3-[(1-ethyl-1H-pyrazol-4-yl)methyl]-4-methyl-1,3-dihydro-2H-imidazol-2-one], the inhibition at 30 µM was found to be 102%.
Regarding `CCn1cc(Cn2c(C)cn(-c3cc(N4CCOC(C)(C)C4)cc(C4CC4)c3F)c2=O)cn1` [Example 164, 1-[3-cyclopropyl-5-(2,2-dimethylmorpholin-4-yl)-2-fluorophenyl]-3-[(1-ethyl-1H-pyrazol-4-yl)methyl]-4-methyl-1,3-dihydro-2H-imidazol-2-one], the inhibition at 30 µM amounted to 97%.
Regarding `CCn1cc(Cn2ccn(-c3cc(N4CCC(F)(F)CC4)cc(C4CC4(F)F)c3F)c2=O)cn1` (centres unmarked) [Example 156, 1-[3-(2,2-difluorocyclopropyl)-5-(4,4-difluoropiperidin-1-yl)-2-fluorophenyl]-3-[(1-ethyl-1H-pyrazol-4-yl)methyl]-1,3-dihydro-2H-imidazol-2-one], the inhibition at 30 µM was determined as 98%.
Turning to `CCn1cc(Cn2cc(C)n(-c3cc(C(F)(F)F)cc(N4CCOC(F)(F)C4)n3)c2=O)cn1` [Example 111, 3-[6-(2,2-difluoromorpholin-4-yl)-4-(trifluoromethyl)pyridin-2-yl]-1-[(1-ethyl-1H-pyrazol-4-yl)methyl]-4-methyl-1,3-dihydro-2H-imidazol-2-one], the inhibition at 30 µM is 105%.
Consider `Cc1nn(-c2cc(N3CCO[C@@H](C)C3)cc(C(F)(F)F)c2F)c(=O)n1Cc1cnn(C(C)C)c1` [Example 90, 2-{2-fluoro-5-[(2S)-2-methylmorpholin-4-yl]-3-(trifluoromethyl)phenyl}-5-methyl-4-{[1-(propan-2-yl)-1H-pyrazol-4-yl]methyl}-2,4-dihydro-3H-1,2,4-triazol-3-one], for which the inhibition at 30 µM worked out at 99%.
For the compound `CCn1cc(Cn2c(C)cn(-c3cc(N4CCO[C@H](C)C4)cc(C(F)(F)F)c3C)c2=O)cn1` [Example 62, 3-[(1-ethyl-1H-pyrazol-4-yl)methyl]-4-methyl-1-{2-methyl-5-[(2R)-2-methylmorpholin-4-yl]-3-(trifluoromethyl)phenyl}-1,3-dihydro-2H-imidazol-2-one], the inhibition at 30 µM came out at 99%.
`CC(C)n1cc(Cn2ccn(-c3nc(N4CCO[C@H](C)C4)cc(C(F)(F)F)c3F)c2=O)cn1` [Example 75, 1-{3-fluoro-6-[(2R)-2-methylmorpholin-4-yl]-4-(trifluoromethyl)pyridin-2-yl}-3-{[1-(propan-2-yl)-1H-pyrazol-4-yl]methyl}-1,3-dihydro-2H-imidazol-2-one]: the inhibition at 30 µM is 99%.
On to `CCc1cc(N2CCO[C@H](C)C2)cc(-n2cc(C)n(Cc3cnn(CC)c3)c2=O)c1F` [Example 81, 1-{3-ethyl-2-fluoro-5-[(2R)-2-methylmorpholin-4-yl]phenyl}-3-[(1-ethyl-1H-pyrazol-4-yl)methyl]-4-methyl-1,3-dihydro-2H-imidazol-2-one], for which the inhibition at 30 µM stood at 98%.
For the compound `Cc1cn(-c2cc(C(F)(F)F)cc(N3CCO[C@H](C)C3)n2)c(=O)n1Cc1cnn(C(C)C)c1` [Example 129, 4-methyl-1-{6-[(2R)-2-methylmorpholin-4-yl]-4-(trifluoromethyl)pyridin-2-yl}-3-{[1-(propan-2-yl)-1H-pyrazol-4-yl]methyl}-1,3-dihydro-2H-imidazol-2-one], the inhibition at 30 µM worked out at 100%.
With `CCn1cc(Cn2c(C)cn(-c3cc(N(C)C4CCOCC4)cc(C(F)(F)F)c3Cl)c2=O)cn1` [Example 58, 1-{2-chloro-5-[methyl(oxan-4-yl)amino]-3-(trifluoromethyl)phenyl}-3-[(1-ethyl-1H-pyrazol-4-yl)methyl]-4-methyl-1,3-dihydro-2H-imidazol-2-one], the inhibition at 30 µM was 98%.
Turning to `CCn1cc(Cn2c(C)c(C)n(-c3cc(OCC(F)(F)F)cc(N(C)C4CCOCC4)c3)c2=O)cn1` [Example 73, 1-[(1-ethyl-1H-pyrazol-4-yl)methyl]-4,5-dimethyl-3-{3-[methyl(oxan-4-yl)amino]-5-(2,2,2-trifluoroethoxy)phenyl}-1,3-dihydro-2H-imidazol-2-one], the inhibition at 30 µM was 99%.
In the case of `CCn1cc(Cn2cc(C)n(-c3cc(N(C)C4CCOCC4)cc(C(F)(F)F)c3)c2=O)cn1` [Example 38, 1-[(1-ethyl-1H-pyrazol-4-yl)methyl]-4-methyl-3-{3-[methyl(oxan-4-yl)amino]-5-(trifluoromethyl)phenyl}-1,3-dihydro-2H-imidazol-2-one], the inhibition at 30 µM is 99%.
For the compound `CCn1cc(Cn2cc(C)n(-c3cc(N4CCO[C@H](C)C4)cc(C(F)(F)F)c3)c2=O)cn1` [Example 14, 1-[(1-ethyl-1H-pyrazol-4-yl)methyl]-4-methyl-3-{3-[(2R)-2-methylmorpholin-4-yl]-5-(trifluoromethyl)phenyl}-1,3-dihydro-2H-imidazol-2-one], the inhibition at 30 µM stood at 99%.
Turning to `CCn1cc(Cn2c(C)cn(-c3nc(N4CCO[C@H](C)C4)cc(C(F)(F)F)c3Cl)c2=O)cn1` [Example 84, 1-{3-chloro-6-[(2R)-2-methylmorpholin-4-yl]-4-(trifluoromethyl)pyridin-2-yl}-3-[(1-ethyl-1H-pyrazol-4-yl)methyl]-4-methyl-1,3-dihydro-2H-imidazol-2-one], the inhibition at 30 µM was determined as 99%.
On to `CCn1cc(Cn2cc(C)n(-c3cc(OCC4(F)CC4)cc(C(F)(F)F)c3)c2=O)cn1` [Example 56, 1-[(1-ethyl-1H-pyrazol-4-yl)methyl]-3-{3-[(1-fluorocyclopropyl)methoxy]-5-(trifluoromethyl)phenyl}-4-methyl-1,3-dihydro-2H-imidazol-2-one], for which the inhibition at 30 µM worked out at 98%.
In the case of `Cc1cn(Cc2cnn(C(C)C)c2)c(=O)n1-c1cc(C2CC2)cc(N2CCOC(C)(C)C2)n1` [Example 130, 3-[4-cyclopropyl-6-(2,2-dimethylmorpholin-4-yl)pyridin-2-yl]-4-methyl-1-{[1-(propan-2-yl)-1H-pyrazol-4-yl]methyl}-1,3-dihydro-2H-imidazol-2-one], the inhibition at 30 µM came to 100%.
As for `CCn1cc(Cn2cc(C)n(-c3nc(N4CCO[C@H](C)C4)cc(C(F)(F)F)n3)c2=O)cn1` [Example 124, 1-[(1-ethyl-1H-pyrazol-4-yl)methyl]-4-methyl-3-{4-[(2R)-2-methylmorpholin-4-yl]-6-(trifluoromethyl)pyrimidin-2-yl}-1,3-dihydro-2H-imidazol-2-one], the inhibition at 30 µM was 103%.
For the compound `CCn1cc(Cn2cc(C)n(-c3cc(C4CC4)c(F)c(N4CCO[C@H](C)C4)c3)c2=O)cn1` [Example 160, 3-{3-cyclopropyl-4-fluoro-5-[(2R)-2-methylmorpholin-4-yl]phenyl}-1-[(1-ethyl-1H-pyrazol-4-yl)methyl]-4-methyl-1,3-dihydro-2H-imidazol-2-one], the inhibition at 30 µM is 98%.
The result for `CCn1cc(Cn2c(C)c(C)n(-c3nc(N4CCO[C@H](C)C4)cc(C(F)(F)F)c3F)c2=O)cn1` [Example 59, 1-[(1-ethyl-1H-pyrazol-4-yl)methyl]-3-{3-fluoro-6-[(2R)-2-methylmorpholin-4-yl]-4-(trifluoromethyl)pyridin-2-yl}-4,5-dimethyl-1,3-dihydro-2H-imidazol-2-one] reads 102%.

The term inhibition denotes the drop in the measured response relative to a control, in per cent.
